Assay results reported in patent publication US9486449B2, “Cancer therapy” (priority 2007, dated 2016).
“And” between values parts separate entries of the source, which are not always exact repeats. Identical values can stand only once. Counter-ions that a name gives are not always drawn.

Tests used:
PARP-1 = PARP-1 (Homo sapiens, UniProt P09874); details: cited from earlier work; for EC50: read-out: EC50 for PARP1 inhibition
MCF-7 brca1+/+ cells = details: 10 μM, 10 consecutive days; cited from earlier work
[1] = molecular target: T1, binding of γ-tubulin to kinesin-14/HSET (Homo sapiens, UniProt Q9BW19); test: Co-IP of kinesin-14/HSET with γ-tubulin in MDA-MB-231 cells; format: cell-based; details: 48 hours, PJ-34 20 μM, Tiq-A 100 μM, Phen(6) 50 μM
T1 sequence (Q9BW19 1-673): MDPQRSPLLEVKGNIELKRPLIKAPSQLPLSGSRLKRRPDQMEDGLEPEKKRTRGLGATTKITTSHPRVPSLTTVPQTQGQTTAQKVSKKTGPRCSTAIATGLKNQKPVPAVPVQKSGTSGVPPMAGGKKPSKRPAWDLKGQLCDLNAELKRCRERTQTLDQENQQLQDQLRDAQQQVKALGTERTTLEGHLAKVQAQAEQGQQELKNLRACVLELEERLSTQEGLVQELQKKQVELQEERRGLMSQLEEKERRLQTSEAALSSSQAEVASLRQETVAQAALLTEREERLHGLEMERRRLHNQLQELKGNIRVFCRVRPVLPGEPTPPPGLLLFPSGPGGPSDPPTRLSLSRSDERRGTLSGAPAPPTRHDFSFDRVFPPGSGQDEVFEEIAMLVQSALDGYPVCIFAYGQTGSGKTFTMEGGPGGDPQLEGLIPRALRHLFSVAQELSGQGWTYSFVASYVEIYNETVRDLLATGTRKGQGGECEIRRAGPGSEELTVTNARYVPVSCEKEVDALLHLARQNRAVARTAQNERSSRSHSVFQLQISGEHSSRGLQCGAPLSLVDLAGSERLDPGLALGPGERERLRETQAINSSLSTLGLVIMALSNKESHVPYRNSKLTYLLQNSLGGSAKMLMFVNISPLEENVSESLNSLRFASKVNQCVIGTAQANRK
Text: Thus, PJ-34, Tiq-A and Phen interfered with the co-immunoprecipitation of HSET with γ-tubulin.

α-tubulin with γ-tubulin = test: Co-immunoprecipitation of α-tubulin with γ-tubulin in cancer cells; format: cell-based
[2] = test system: MCF-7 breast cancer cells; test: Survival of MCF-7 cells after single application (cell count, microscopy); format: cell-based, human; details: for MCF-7 survival: 48 to 72 hours, 10 μM PJ-34, Tiq-A 100 μM, Phen 50 μM; for killing of MCF-7 cells: Example 7, single application 24 h after seeding, Tiq-A 50/100 μM 72 h, Phen 25 μM 48 h / 50 μM 72 h
Protocol: Cells were cultured in 6-wells multi-dish plates (Nunc Denmark). MCF-7 and MDA231 cells were cultured in 6-wells multi-dish plates (Nunc Denmark). MCF-7 and MDA231 cells were maintained in a medium containing DMEM (cat #01055-1A), 10% Horse serum (cat #04-124-1A), 1% L-Glutamine (cat #03-020-1B), and 1% Pen-Strep Ampho (cat #03-033-1B) (Gibco, Invitrogene, purchased from Rhenium, Jerusalem 91035 Israel.
MCF-7 cells were seeded (about 50,000/well) in 6-well plates. […]. […] […].
The effect of PARP inhibitors on MCF-7 and MDA-MB-231 human breast cancer cells was examined (cells were seeded in about 500,000 cells/[…] well in six-well plates). […]. The damage was irreversible. […]. […] […].

brain cortical neurons = test: Effect on quiescent cells: brain cortical neurons; format: cell-based; details: 10 to 30 μM PJ-34, 100 μM Tiq-A, 50 μM Phen
cardiomyocytes = test: Effect on quiescent cells: cardiomyocytes; format: cell-based; details: 10 to 30 μM PJ-34, 100 μM Tiq-A, 50 μM Phen
[3] = test system: HCC1937 (triple negative, BRCA deficient) human breast cancer cells; test: Combination of MEK and PARP inhibitors on HCC1937 cells; format: cell-based; details: 48 hours; PJ-34 5 or 10 μM or Tiq-A 50 μM with 5 μM U0126
HSET = molecular target: T2, HSET (Homo sapiens, UniProt Q9BW19); test: Post translational modification of HSET in MDA-MB-231 cells (pI shift, 2-D gel electrophoresis); format: cell-based; details: ABT888 at 5-20 μM
T2 sequence (Q9BW19 1-673): T1 sequence (Q9BW19 1-673)
Protocol: Post translational modifications of HSET in MDA-MB-231 breast cancer cells (FIG. 24B-I) were measured by the shifts in its isoelectric point (pI). […] Also, HSET is not modified in normal epithelial cells MCF10A. The vertical lines mark the point of loading of the proteins including HSET in the cell extracts. The arrows mark the shifted pI of HSET. In untreated MDA-MB-231 cells, the largest shift in pI of HSET was to pH 5.6 in the untreated MDA-MB-231 cells.

U-87 Glioblastoma cells = test: Viability of U-87 glioblastoma cells (FACS); format: cell-based, human; details: 0.5-30 μM, single application; 72 and 96 h (PJ-34), 96 h (Phen, Tiq-A)
Protocol: The malignant U-87 Glioblastoma cells were incubated with these molecules applied once 24 hours after seeding. Cell viability was measured by FACS. The results of 3 different experiments carried in duplicates are presented.

[4] = test system: MDA-MB-231 breast cancer cells; test: Survival of MDA-MB-231 cells after single application
Text: Each value is an average value of three measurements obtained in three different experiments.

[5] = test system: CAPANI cells (which are deficient in brca2); details: cited from earlier work
[6] = test system: MDA-MB-231 xenotransplants; test: MDA-MB-231 xenotransplants in nude mice, PJ-34 by subcutaneous osmotic pump; format: in vivo, mouse; details: PJ-34 treated, tumor-free mice
Protocol: Xenotransplants were developed in female CD-1 nu/nu 5 to 6 weeks old. MCF-7 and MDA 231 cells were injected subcutaneously, about 10^7 MCF-7 or MDA231 cells in 150 μl of PBS and 150 μl of Martigel Basement Membrane Matrix Becton Dickinson, Bedford, Mass., USA; In Israel Bactolab Diagnostics). In mice treated with PJ-34, injection was adjacent to subcutaneous osmotic pumps dripping PJ-34 by a slow release. The mice were maintained under specific pathogen-free conditions with access to mouse chow and water ad libitum. […]. Subcutaneous implantation of these pumps was performed before injection by a veterinarian (Dr. Kastel David). All the experiments with nude mice conform to the Guide for the Care and Use of Laboratory Animals published by the NIH (publication No. 85-23, revised 1996). Approval was granted by the Israeli Ministry of Health ethics review board in the Tel-AvivUniversity (M08033).
In vivo experiments were carried out in nude female mice (nu/nu) injected subcutaneously with MCF-7 or MDA-MB-231 cells (FIG. 15). […]. In the control nude mice, pumps contained only PBS, or pumps were not implanted. Each mouse was injected subcutaneously with approximately 10^7 MCF-7 or MDA-MB-231 cells dispersed in Matrigel. Tumors developed within 6 to 7 weeks in the control mice injected with MCF-7 cells and within 10 days in the control mice injected with MDA231 cells. […]

[7] = Tolerability of slow-release PJ-34 in nude mice; format: in vivo
Protocol: . In vivo experiments were carried out in nude female mice (nu/nu) injected subcutaneously with MCF-7 or MDA-MB-231 cells (FIG. 15). […]. In the control nude mice, pumps contained only PBS, or pumps were not implanted. Each mouse was injected subcutaneously with approximately 10^7 MCF-7 or MDA-MB-231 cells dispersed in Matrigel. Tumors developed within 6 to 7 weeks in the control mice injected with MCF-7 cells and within 10 days in the control mice injected with MDA231 cells. One mouse died 3 weeks after being injected with MDA-MB-231 cells. […]

[8] = test system: extra-centrosomes de-clustering in human cancer cells; test: Extra-centrosomes de-clustering; format: cell-based
[9] = test system: MDA-MB-231 xenotransplants; test: MDA-MB-231 xenotransplants in nude mice, PJ-34 intra-peritoneal; format: in vivo, mouse; details: 50 mg/kg PJ-34 i.p. daily for 14 days, started at palpable tumors; individual treated mice (untreated 750 and 850); HCl
Protocol: In vivo experiments were carried out in nude female mice (nu/nu) injected subcutaneously with MDA-MB-231 cells (FIG. 32). […] About 10^6 cells were injected in 100 μl of MEM (Gibco, Rhenium, Jerusalem Israel) and 100 μl of Matrigel Basement Membrane Matrix (Becton Dickinson, Bedford, Mass., USA; In Israel, Bactolab Diagnostics). Two weeks after injection with MDA-MB-231 cells, palpable (50-80 mm^3) tumors developed in all the female nude mice. One pair of mice remained un-treated. […] Tumors' size was measured every day in all the mice (both treated and untreated). The treated mice were photographed on the first day and on the last day of treatment. Tumor sizes were 750 mm^3 and 850 mm^3 in the untreated mice, versus 130 mm^3 and 150 mm^3 in the treated mice.

Chain of PARP-1 (P09874 whole entry, species assumed): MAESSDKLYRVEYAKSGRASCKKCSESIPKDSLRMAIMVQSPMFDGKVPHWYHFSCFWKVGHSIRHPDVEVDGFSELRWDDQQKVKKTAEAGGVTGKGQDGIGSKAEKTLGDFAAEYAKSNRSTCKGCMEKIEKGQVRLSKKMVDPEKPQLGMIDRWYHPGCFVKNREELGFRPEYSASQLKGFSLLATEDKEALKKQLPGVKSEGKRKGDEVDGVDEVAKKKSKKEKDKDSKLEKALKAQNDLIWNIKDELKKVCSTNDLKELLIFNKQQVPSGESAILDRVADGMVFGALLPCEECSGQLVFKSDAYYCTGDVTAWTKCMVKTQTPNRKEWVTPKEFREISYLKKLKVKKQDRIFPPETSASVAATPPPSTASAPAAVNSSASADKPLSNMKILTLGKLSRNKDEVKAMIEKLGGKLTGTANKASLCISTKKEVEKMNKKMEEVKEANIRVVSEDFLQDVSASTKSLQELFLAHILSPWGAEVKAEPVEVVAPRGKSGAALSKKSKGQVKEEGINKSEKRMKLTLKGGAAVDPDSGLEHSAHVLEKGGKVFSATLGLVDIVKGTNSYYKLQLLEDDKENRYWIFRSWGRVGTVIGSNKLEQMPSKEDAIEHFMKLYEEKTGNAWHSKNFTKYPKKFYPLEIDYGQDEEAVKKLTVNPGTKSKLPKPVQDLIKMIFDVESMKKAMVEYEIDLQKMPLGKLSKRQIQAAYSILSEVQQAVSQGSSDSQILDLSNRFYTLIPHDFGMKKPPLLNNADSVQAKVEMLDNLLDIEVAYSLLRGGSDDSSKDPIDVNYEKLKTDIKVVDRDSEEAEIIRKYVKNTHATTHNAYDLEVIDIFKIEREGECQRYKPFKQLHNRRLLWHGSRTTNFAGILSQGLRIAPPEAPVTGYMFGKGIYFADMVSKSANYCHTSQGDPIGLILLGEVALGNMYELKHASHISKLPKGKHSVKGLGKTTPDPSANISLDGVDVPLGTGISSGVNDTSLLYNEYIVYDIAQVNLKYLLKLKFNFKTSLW

For `CN(C)Cc1ccc(-c2nc3cccc4c3n2CCNC4=O)cc1` [AG14361, reference compound], the Ki (PARP-1; PARP-1) is listed as under 5 nM and the cells eradicated (MCF-7 brca1+/+ cells) is listed as 50%.
For `C[C@]1(c2nc3c(C(N)=O)cccc3[nH]2)CCCN1` [ABT888, reference compound], the “binding of γ-tubulin to kinesin-14/HSET” value [1] was “did not affect the binding” and the “co-immunoprecipitation of α-tubulin with γ-tubulin” value (α-tubulin with γ-tubulin) was “not”.
In the case of `O=c1[nH]c2sccc2c2ccccc12` [Tiq-A, 4H-thieno[2,3-c]isoquinolin-5-one], the MCF-7 survival [2] is reported as “did not survive”, the “killing of MCF-7 cells” value [2] is reported as “efficient in killing MCF-7 cells” and the “impairment of quiescent cells” value (brain cortical neurons) is reported as “not impaired at all”. For the same compound, the “impairment of quiescent cells” value (cardiomyocytes) was “not impaired at all”, the “effect of combination with MEK inhibitor U0126 versus each inhibitor alone” value [3] was “synergistic effect” and the “post translational modification of HSET (pI shift)” value (HSET) was “prevent the post translational modification”. For the same compound, the “binding of γ-tubulin to kinesin-14/HSET” value [1] was “interfered with the binding”, the “cytotoxicity in glioblastoma cancer cells” value (“cytotoxicity” for short) (U-87 Glioblastoma cells) was “cytotoxic in glioblastoma cancer cells at high concentrations” and the EC50 (PARP-1) was 450 nM. The “killing of MDA-MB-231 breast cancer cells” value [4] was “efficient killing”.
In the case of `Cc1nc2c(O)cccc2c(=O)[nH]1` [NU1025], the “inhibition of CAPANI cells” value [5] is listed as “not inhibited”.
In the case of `CN(C)CC(=O)Nc1ccc2[nH]c(=O)c3ccccc3c2c1` [PJ-34, N-(6-oxo-5,6-dihydro-phenanthridin-2-yl)-N,N-dimethylacetamide, HCl], the cell death ([2]; 48 hours after single application of 10-20 μM PJ-34) is reported as “more than 99.5%”, the MCF-7 cells eradicated ([2]; 48 hours of incubation with 10 μM PJ-34) is reported as “More than 99%” and the “survival of the other 3 treated mice” value [6] is reported as “more than 4 months”. The “viability, growth or behavior of the mice” value ([7]; 3 months after 14-day osmotic pump treatment (Example 6)) was “did not affect viability, growth or behavior”, the “vitality, growth, development, or any other behavior of treated mice” value ([7]; 14-day slow release of PJ-34, follow-up periods (Example 11)) was “did not affect the vitality, growth, development, or any other behavior” and the “concentration at which PJ-34 acts as centrosomes de-clustering agent” value [8] was “above 20 microM”. For the same compound, the “cytotoxicity” value (U-87 Glioblastoma cells) was “cytotoxic in glioblastoma cancer cells at high concentrations” and the Tumor sizes [9] was 130 mm^3 and 150 mm^3.
In the case of `O=C1CCC(=O)N1c1cc(Cc2n[nH]c(=O)c3ccccc23)ccc1F` [KU0058684], the “inhibition of CAPANI cells” value [5] is given as “inhibited”.
With `O=c1[nH]c2ccccc2c2ccccc12` [Phen, 6-(5H)-phenanthridinone] the MCF-7 survival [2] was “did not survive”, the “killing of MCF-7 cells” value [2] was “efficient in killing MCF-7 cells” and the “impairment of quiescent cells” value (brain cortical neurons) was “not impaired at all”. The “impairment of quiescent cells” value (cardiomyocytes) was “not impaired at all”, the “binding of γ-tubulin to kinesin-14/HSET” value [1] was “interfered with the binding” and the “cytotoxicity” value (U-87 Glioblastoma cells) was “cytotoxic in glioblastoma cancer cells at high concentrations”. The EC50 (PARP-1) was 120 nM and the “killing of MDA-MB-231 breast cancer cells” value [4] was “efficient killing”.
